Data reported in US6274715A, “Tricyclic erythromycin derivatives” (priority 1997, dated 2001).
In brackets after ≈: the same amount, converted by molar mass.

Assays:
Assay type in all cases: cell-based
[1] = tested on: STAPHYLOCOCCUS AUREUS NCTC10649M; test: In vitro antibacterial activity, MIC, BHI agar dilution; conditions: S. aureus NCTC10649M, unit assumed
[2] = tested on: PSEUDOMONAS AERUGINOSA BMH10; test: as above; conditions: P. aeruginosa BMH10, unit assumed
[3] = tested on: ACINETOBACTER CALCOACETICUS CMX 669; test: as above; conditions: A. calcoaceticus CMX 669, unit assumed
ESCHERICHIA COLI KNK 437 = conditions: E. coli KNK 437; BHI agar; unit assumed
ESCHERICHIA COLI DC-2 = test: In vitro antibacterial activity, MIC, BHI agar dilution; conditions: E. coli DC-2, unit assumed
[4] = tested on: ENTEROBACTER AEROGENES ATCC 13048; test: as above; conditions: E. aerogenes ATCC 13048, unit assumed
M[…] ATCC 9341 = test: as above; conditions: M. luteus ATCC 9341, unit assumed
Outline: (§1)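 MIC was read visually as the lowest drug concentration showing no growth, a slight haze or sparsely isolated colonies relative to a compound-free BHI plate. Plates held serial aqueous dilutions in BHI agar, were spot-inoculated with 1:100 (or 1:10) culture dilutions and incubated 20 to 24 hours at 35-37° C.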

M[…] ATCC 4698 = test: as above; conditions: M. luteus ATCC 4698, unit assumed
Outline: as §1

EN[…] ATCC 8043 = test: as above; conditions: E. faecium ATCC 8043, unit assumed
Outline: as §1

STR[…] 508 = test: as above; conditions: S. agalactiae CMX 508, unit assumed
Outline: as §1

ESCHERICHIA COLI H560 = test: as above; conditions: E. coli H560, unit assumed
[5] = tested on: PSEUDOMONAS AERUGINOSA DPHD-5263; test: as above; conditions: P. aeruginosa DPHD-5263, unit assumed
[6] = tested on: PSEUDOMONAS AERUGINOSA 5007; test: as above; conditions: P. aeruginosa 5007, unit assumed
H. Influenza Dill AMP R = test: In vitro antibacterial activity against H. Influenza Dill AMP R, MIC; conditions: separate assay, unit assumed
Procedure: Representative compounds of the present invention were assayed in vitro for antibacterial activity as follows: Twelve petri dishes containing successive aqueous dilutions of the test compound mixed with 10 mL of sterilized Brain Heart Infusion (BHI) agar (Difco 0418-01-5) were prepared. Each plate was inoculated with 1:100 (or 1:10 for slow-growing strains, such as Micrococcus and Streptococcus) dilutions of up to 32 different microorganisms, using a Steers replicator block. The inoculated plates were incubated at 35-37° C. for 20 to 24 hours. In addition, a control plate, using BHI agar containing no test compound, was prepared and incubated at the beginning and end of each test.
After incubation, each plate was visually inspected. The minimum inhibitory concentration (MIC) was defmed as the lowest concentration of drug yielding no growth, a slight haze, or sparsely isolated colonies on the inoculum spot as compared to the growth control.
In a separate assay representative compounds of the invention were assayed in vitro for antibacterial activity against the H. Influenza Dill AMP R strain, according to the protocol described above.

[7] = tested on: PSEUDOMONAS AERUGINOSA DPHD-2862; test: In vitro antibacterial activity, MIC, BHI agar dilution; conditions: P. aeruginosa DPHD-2862, unit assumed
[8] = tested on: KLEBSIELLA PNEUMONIAE ATCC 8045; test: as above; conditions: K. pneumoniae ATCC 8045, unit assumed
ESCHERICHIA COLI SS = test: as above; conditions: E. coli SS, unit assumed
[9] = tested on: STAPHYLOCOCCUS AUREUS ATCC 6538P; test: as above; conditions: S. aureus ATCC 6538P, 35-37° C., 20 to 24 hours, unit assumed
[10] = tested on: STREPTOCOCCUS PYOGENES 930; test: as above; conditions: S. pyogenes 930, unit assumed
[11] = tested on: STAPHYLOCOCCUS AUREUS A-5278; test: as above; conditions: S. aureus A-5278, unit assumed
[12] = tested on: STREPTOCOCCUS PYOGENES PIU 2548; test: as above; conditions: S. pyogenes PIU 2548, unit assumed
[13] = tested on: STAPHYLOCOCCUS AUREUS A5177; test: as above; conditions: S. aureus A5177, unit assumed
[14] = tested on: PSEUDOMONAS AERUGINOSA K799/61; test: as above; conditions: P. aeruginosa K799/61, unit assumed
[15] = tested on: STAPHYLOCOCCUS AUREUS CMX 642A; test: as above; conditions: S. aureus CMX 642A, unit assumed
[16] = tested on: STREPTOCOCCUS BOVIS A-5169; test: as above; conditions: S. bovis A-5169, unit assumed
[17] = tested on: STAPHYLOCOCCUS EPIDERMIDIS 3519; conditions: S. epidermidis 3519; BHI agar; unit assumed
PSEUDOMONAS CEPACIA 296I = test: In vitro antibacterial activity, MIC, BHI agar dilution; conditions: P. cepacia 296I, unit assumed
[18] = tested on: STAPHYLOCOCCUS AUREUS 1775; test: as above; conditions: S. aureus 1775, unit assumed
[19] = tested on: STREPTOCOCCUS PYOGENES EES61; test: as above; conditions: S. pyogenes EES61, unit assumed
[20] = tested on: PROVIDENCIA STUARTII CMX 640; conditions: P. stuartii CMX 640; BHI agar; unit assumed
[21] = tested on: PSEUDOMONAS AERUGINOSA K799/WT; test: In vitro antibacterial activity, MIC, BHI agar dilution; conditions: P. aeruginosa K799/WT, unit assumed
[22] = tested on: STAPHYLOCOCCUS AUREUS CMX 553; test: as above; conditions: S. aureus CMX 553, unit assumed
CANDIDA ALBICANS CCH 442 = test: as above; conditions: C. albicans CCH 442, unit assumed
[23] = tested on: MYCOBACTERIUM SMEGMATIS ATCC 114; test: as above; conditions: M. smegmatis ATCC 114, unit assumed
ESCHERICHIA COLI JUHL = conditions: E. coli JUHL; BHI agar; unit assumed

Row | SMILES | MIC [1] [µg/mL] | MIC [2] [µg/mL] | MIC (ESCHERICHIA COLI KNK 437) [µg/mL] | MIC (ESCHERICHIA COLI DC-2) [µg/mL] | MIC [4] [µg/mL] | MIC (M[…] ATCC 9341) [µg/mL] | MIC (M[…] ATCC 4698) [µg/mL] | MIC (EN[…] ATCC 8043) [µg/mL] | MIC (STR[…] 508) [µg/mL] | MIC (ESCHERICHIA COLI H560) [µg/mL] | MIC [5] [µg/mL] | MIC [6] [µg/mL] | MIC (H. Influenza Dill AMP R) [µg/mL] | MIC [7] [µg/mL] | MIC [8] [µg/mL] | MIC (ESCHERICHIA COLI SS) [µg/mL] | MIC [9] [µg/mL] | MIC [10] [µg/mL] | MIC [11] [µg/mL] | MIC [12] [µg/mL] | also measured
1 | CC[C@H]1OC(=O)[C@H](C)C(=O)[C@H](C)[C@@H](O[C@@H]2O[C@H](C)C[C@H](N(C)C)[C@H]2O)[C@](C)(OC)C[C@@H](C)C2=N[C@@H]3COC[C@@H]3N3C(=O)O[C@@]1(C)[C@H]3[C@H]2C [Example 18] | 0.78 (≈ 1.15 µM) | > 100 | > 100 | > 100 | > 100 | 0.05 (≈ 0.0735 µM) | 0.78 (≈ 1.15 µM) | 0.1 (≈ 0.147 µM) | 0.05 (≈ 0.0735 µM) | > 100 | > 100 | > 100 | 8 (≈ 11.8 µM) | > 100 | > 100 | 0.78 (≈ 1.15 µM) | 0.39 (≈ 0.574 µM) | > 100 | > 100 | 0.39 (≈ 0.574 µM) | MIC [3]: > 100 µg/mL; MIC [13]: 0.78 µg/mL (≈ 1.15 µM); MIC [14]: 6.2 µg/mL (≈ 9.12 µM); MIC [15]: 0.78 µg/mL (≈ 1.15 µM); MIC [16]: 0.05 µg/mL (≈ 0.0735 µM); MIC [17]: 0.78 µg/mL (≈ 1.15 µM); MIC (PSEUDOMONAS CEPACIA 296I): > 100 µg/mL; MIC [18]: > 100 µg/mL; MIC [19]: 0.05 µg/mL (≈ 0.0735 µM); MIC [20]: > 100 µg/mL; MIC [21]: > 100 µg/mL; MIC [22]: 0.78 µg/mL (≈ 1.15 µM); MIC (CANDIDA ALBICANS CCH 442): > 100 µg/mL; MIC [23]: 3.1 µg/mL (≈ 4.56 µM)
2 | CC[C@H]1OC(=O)[C@H](C)C(=O)[C@H](C)[C@@H](O[C@@H]2O[C@H](C)C[C@H](N(C)C)[C@H]2O)[C@](C)(OC)C[C@@H](C)C2=NC3CN(CCc4cccc([N+](=O)[O-])c4)CC3N3C(=O)O[C@@]1(C)[C@H]3[C@H]2C (some centres unmarked) [Example 120] | 0.2 (≈ 0.242 µM) | > 100 | > 100 | 50 (≈ 60.4 µM) | > 100 | 0.02 (≈ 0.0242 µM) | 0.2 (≈ 0.242 µM) | 0.05 (≈ 0.0604 µM) | 0.01 (≈ 0.0121 µM) | 50 (≈ 60.4 µM) | > 100 | > 100 | 4 (≈ 4.83 µM) | > 100 | > 100 | 0.39 (≈ 0.471 µM) | 0.2 (≈ 0.242 µM) | > 100 | > 100 | 0.39 (≈ 0.471 µM) | MIC (ESCHERICHIA COLI JUHL): 50 µg/mL (≈ 60.4 µM); MIC [13]: 0.2 µg/mL (≈ 0.242 µM); MIC [14]: 0.78 µg/mL (≈ 0.942 µM); MIC [15]: 0.2 µg/mL (≈ 0.242 µM); MIC [16]: 0.01 µg/mL (≈ 0.0121 µM); MIC [17]: 0.39 µg/mL (≈ 0.471 µM); MIC (PSEUDOMONAS CEPACIA 296I): 100 µg/mL (≈ 121 µM); MIC [18]: > 100 µg/mL; MIC [19]: 0.01 µg/mL (≈ 0.0121 µM); MIC [20]: > 100 µg/mL; MIC [21]: > 100 µg/mL; MIC [22]: 0.2 µg/mL (≈ 0.242 µM); MIC (CANDIDA ALBICANS CCH 442): > 100 µg/mL; MIC [23]: 0.78 µg/mL (≈ 0.942 µM)
